The text below walks through data of ChEMBL document CHEMBL1201862, “PubChem BioAssay data set” (2004).

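Cultured in 96-well plates, cells were exposed to test compound for 48 hours across five concentrations. GI50 marks 50% less growth.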 Active and inactive are the calls of the source. Rule as the data show it: active = GI50 up to about 1.1 µM and inactive = higher.

Test systems include SN12C; KM12; COLO 205; OVCAR-3; SK-OV-3; A498; M14; SF-539; NCI-H522; TK-10; RXF 393; HCT-15; SF-295; LOX IMVI; ACHN; SW-620; OVCAR-8; HL-60; Malme-3M.
What all share (assay): NCI tumour cell line growth inhibition, 48 h

`C=CC(=O)N1C/C(=C\c2ccc(Cl)c(Cl)c2)C(=O)/C(=C/c2ccc(Cl)c(Cl)c2)C1`: the GI50 with SN12C was 0.155 µM (active); in the assay with KM12 it was 0.237 µM (active); in the assay with COLO 205, 0.112 µM (active); in the assay with OVCAR-3, 0.0865 µM (active); with SK-OV-3 it was 0.378 µM (active); in the assay on A498 it was 0.63 µM (active). The GI50 was 0.226 µM (active) in the assay with M14; 0.181 µM (active) in the assay on SF-539; 0.149 µM (active) in the assay on NCI-H522; 0.501 µM (active) with TK-10; 0.148 µM (active) in the assay with RXF 393; 0.0716 µM with HCT-15. In addition, the GI50 in the assay on SF-295 was 0.233 µM (active); in the assay on LOX IMVI it was 0.288 µM (active); in the assay on ACHN it was 0.169 µM (active); in the assay on SW-620 it was 0.0607 µM (active); in the assay on OVCAR-8 it was 0.115 µM (active).

Regarding `Oc1ccc2c(O)cc(-c3ccccc3)nc2c1`, the GI50 in the assay with SN12C is 24.3 µM (inactive); in the assay with KM12 it was 22.2 µM (inactive); in the assay on HL-60, 21.5 µM (inactive); in the assay with Malme-3M, 34.4 µM (inactive); in the assay with COLO 205 it was 17 µM (inactive); with SK-OV-3, 28.4 µM (inactive). The GI50 is 32.1 µM (inactive) in the assay on A498; 19.7 µM (inactive) in the assay with M14; 37.2 µM (inactive) with SF-539; 27 µM (inactive) in the assay on NCI-H522; 40.7 µM (inactive) in the assay with TK-10; 6.22 µM (inactive) in the assay on RXF 393. For the same molecule, the GI50 with HCT-15 was 15.8 µM; in the assay on SF-295, 75 µM (inactive); in the assay on LOX IMVI, 17.5 µM (inactive); in the assay with ACHN, 21.4 µM (inactive); in the assay on SW-620 it was 16.4 µM (inactive); with OVCAR-8, 32.7 µM (inactive).

Consider `CCN(CCCl)c1cc(CN(C)C)cc(NC(=O)c2ccc(C(=O)Nc3cccc(CN(C)C)c3)cc2)c1`, for which the GI50 in the assay with SN12C was 0.357 µM (active); in the assay with KM12, 1.28 µM (inactive); with HL-60, 0.0467 µM (active); in the assay on Malme-3M, 1.31 µM (inactive); in the assay with COLO 205, 1.13 µM (inactive); in the assay with SK-OV-3, 1.91 µM (inactive). Moreover, the GI50 with A498 is 2.65 µM (inactive); in the assay on M14 it was 4.27 µM (inactive); with SF-539 it was 0.457 µM (active); in the assay on NCI-H522, 0.0161 µM (active); in the assay with TK-10 it was 3.73 µM (inactive); in the assay on RXF 393, 0.247 µM (active). The GI50 was 32.4 µM with HCT-15; 1.36 µM (inactive) in the assay on SF-295; 0.201 µM (active) in the assay on LOX IMVI; 2.94 µM (inactive) with ACHN; 0.225 µM (active) with SW-620; 0.889 µM (active) in the assay on OVCAR-8.

With `Cn1c(=O)c2/c(n(C)c1=O)=N\C=c1\c(=O)n(C)c(=O)n(C)\c1=N\C=2`, the GI50 with SN12C, in the assay with KM12, with HL-60, in the assay on Malme-3M, in the assay with COLO 205 and with OVCAR-3 was > 100 µM (inactive) in each case. Further, the GI50 with A498, with M14, with SF-539, in the assay with NCI-H522, with TK-10 and in the assay with RXF 393 was > 100 µM (inactive) each time. In addition, the GI50 is above 100 µM in the assay on HCT-15; > 100 µM (inactive) with SF-295; > 100 µM (inactive) in the assay with ACHN; > 100 µM (inactive) in the assay with SW-620; > 100 µM (inactive) in the assay on OVCAR-8.

In the case of `Cc1c(Cl)ccc2c1NC(=O)C2(O)CC(=O)c1ccc2ccccc2c1` (stereo unspecified), the GI50 with SN12C is 76.7 µM (inactive); in the assay with KM12 it was 37.2 µM (inactive); in the assay on Malme-3M, > 100 µM (inactive); in the assay with COLO 205, 85.3 µM (inactive); with OVCAR-3, 33.4 µM (inactive); in the assay on SK-OV-3 it was > 100 µM (inactive). The GI50 with A498 is > 100 µM (inactive); in the assay with M14 it was 86.1 µM (inactive); in the assay on SF-539, 49.8 µM (inactive); in the assay on NCI-H522 it was 24.7 µM (inactive); with TK-10 it was > 100 µM (inactive); in the assay on RXF 393, 16 µM (inactive). In addition, the GI50 was 41.1 µM in the assay on HCT-15; 88.3 µM (inactive) in the assay with SF-295; 44.7 µM (inactive) in the assay with LOX IMVI; 58.9 µM (inactive) in the assay with ACHN; 47.8 µM (inactive) in the assay on SW-620; 55.2 µM (inactive) in the assay with OVCAR-8.

For the molecule `Nc1ccn(CCNCCn2cnc3nc(N)[nH]c(=O)c32)c(=O)n1`, the GI50 with SN12C, in the assay with KM12, in the assay with HL-60, in the assay on Malme-3M, in the assay on COLO 205 and with OVCAR-3 was > 100 µM (inactive) throughout. For the same molecule, the GI50 is > 100 µM (inactive) with A498; > 100 µM (inactive) with SF-539; > 100 µM (inactive) in the assay on NCI-H522; > 100 µM (inactive) with TK-10; > 100 µM (inactive) in the assay with RXF 393; above 100 µM with HCT-15. For the same molecule, the GI50 in the assay with SF-295, in the assay on LOX IMVI, in the assay on ACHN, with SW-620 and in the assay on OVCAR-8 was > 100 µM (inactive) throughout.

As to `CN/N=C(\C(=O)Nc1ccc([N+](=O)[O-])cc1[N+](=O)[O-])C1NC(=O)NC1=O` (stereo unspecified), the GI50 with SN12C, in the assay on KM12, in the assay with HL-60, in the assay with Malme-3M, in the assay with COLO 205 and in the assay on OVCAR-3 was > 100 µM (inactive) in each case. Moreover, the GI50 in the assay with SK-OV-3, with A498, in the assay on M14, in the assay on SF-539, in the assay on TK-10 and in the assay on RXF 393 was > 100 µM (inactive) throughout. In addition, the GI50 is above 100 µM in the assay with HCT-15; > 100 µM (inactive) with SF-295; 38.1 µM (inactive) in the assay on LOX IMVI; > 100 µM (inactive) with ACHN; 40.3 µM (inactive) in the assay with SW-620; > 100 µM (inactive) in the assay with OVCAR-8.

In the case of `CCCCCCCCCCCCCCCCCC(=O)OCC(COC1OC(COP(=O)(O)O)C(O)C(O)C1O)OC(=O)CCCCCCCCCCCCCCCCC` (stereo unspecified), the GI50 in the assay on SN12C was 7 µM (inactive); with KM12 it was 6.27 µM (inactive); in the assay with HL-60, 12.4 µM (inactive); in the assay on Malme-3M it was 7.52 µM (inactive); in the assay with COLO 205, 9.59 µM (inactive); in the assay on OVCAR-3 it was 8.87 µM (inactive). The GI50 was 8 µM (inactive) in the assay with SK-OV-3; 6.03 µM (inactive) in the assay with A498; 9.14 µM (inactive) in the assay on M14; 9.44 µM (inactive) in the assay with SF-539; 10.4 µM (inactive) with TK-10; 8.95 µM (inactive) with RXF 393. In addition, the GI50 in the assay on HCT-15 was 7.52 µM; in the assay with SF-295, 4.02 µM (inactive); in the assay on LOX IMVI, 9.06 µM (inactive); with ACHN, 6.41 µM (inactive); in the assay on SW-620, 10.3 µM (inactive); in the assay with OVCAR-8, 7.35 µM (inactive).
